{"source": "paper PMC9351465", "about": "“Mechanism-based heparanase inhibitors reduce cancer metastasis in vivo” (Proceedings of the National Academy of Sciences of the …, 2022)", "key": {"B16 melanoma cells": {"test_system": "B16 melanoma cells", "experiment": "B16 murine melanoma experimental lung metastasis model", "type": "in vivo, mouse", "conditions": "C57BL/J6 mice, i.p. 300 nmol 2 or 150 μg SST0001, then i.v. B16 cells with 2 nmol 2 or 10 μg SST0001; after 14 d; vs PBS", "protocol": "We initially tested a B16 murine melanoma metastasis model, measuring the formation of metastatic lung tumors by B16 melanoma cells after intravenous (i.v.) injection. The efficacy of covalent HPSE inhibition by 2 was compared to SST0001 (Roneparstat), a current best-in-class HPSE inhibitor and clinical trial candidate (SI Appendix, Fig. S1). Mice were inoculated intraperitoneally (i.p.) with 300 nmol of 2 (∼15 μmol/kg for a 20 g mouse), or 150 μg SST0001, followed by an i.v. injection of B16 cells alongside 2 nmol 2 or 10 μg SST0001.\nFor HS-degradation assays, ECM coated dishes were incubated with 200 ng recombinant HPSE in 1 mL reaction mixture (10 mM buffer Phosphate-Citrate pH 6.0, 50 mM NaCl, 1 mM DTT, 1 mM CaCl2) containing HPSE inhibitors or DMSO control. […] The Sepharose 6B column was eluted with PBS, and 35S radioactivity of 0.2 mL fractions quantitated using a liquid scintillation analyzer (Packard BioScience) (11). […]\nCells in the upper chamber were separated by Matrigel from a lower chamber containing 600 µL DMEM, supplemented with 10% FBS. […] 10 randomly selected microscopic fields were recorded, and cell invasion calculated using ImageJ, by quantitating the percentage of the field stained by crystal violet. […]\nMice were sacrificed after 14 days and the lungs were dissected, photographed and evaluated for the number of metastatic foci/lung. […]"}, "4T1 breast cancer cells": {"test_system": "4T1 breast cancer cells", "experiment": "4T1 murine mammary carcinoma lung metastasis model (luciferase imaging)", "type": "in vivo, mouse", "conditions": "Balb/c mice, i.p. 300 nmol 2 or 150 μg SST0001, then i.v. 4T1-Luc cells with 2 nmol 2 or 10 μg SST0001; 14 d", "protocol": "Since HPSE drives metastasis in multiple cancer types, we tested 2 against another metastasis model—4T1 murine mammary carcinoma, which also migrates to the lungs. Here, we were aided by a constitutive luciferase expressing 4T1 line, enabling real-time tracking of cancer growth by chemiluminescent imaging. Similar to the B16 model, mice were dosed i.p. with 300 nmol of 2 or 150 μg SST0001, followed by i.v. injection of 4T1-Luc cells alongside 2 nmol 2 or 10 μg SST0001.\nB16-BL6 melanoma cells/mouse in a volume of 100 µL, alongside 20 µM 2 or 10 µg SST0001.\nMice were sacrificed after 14 days and the lungs were dissected, photographed and evaluated for the number of metastatic foci/lung. Plots and statistical analyses were carried out in Prism […]\nBioluminescence imaging of lung metastases produced by luciferase-expressing 4T1 cells was carried out using a highly sensitive, cooled charge-coupled device camera assembled in a specimen box (IVIS; Xenogen Corp, Hopkinton, MA). […] The tumor burden was quantified using Living Image software (Xenogen) (12, 13). […]\nCAG myeloma - Luciferase-labeled CAG human myeloma cells (3x106) were injected into the tail vein of NOD/SCID mice. […] Tumor burden was quantified using Living Image software. […]"}, "human platelet HPSE": {"target": "T1, human platelet HPSE (Homo sapiens, UniProt Q9Y251)", "T1 sequence (Q9Y251 158-543 limits assumed)": "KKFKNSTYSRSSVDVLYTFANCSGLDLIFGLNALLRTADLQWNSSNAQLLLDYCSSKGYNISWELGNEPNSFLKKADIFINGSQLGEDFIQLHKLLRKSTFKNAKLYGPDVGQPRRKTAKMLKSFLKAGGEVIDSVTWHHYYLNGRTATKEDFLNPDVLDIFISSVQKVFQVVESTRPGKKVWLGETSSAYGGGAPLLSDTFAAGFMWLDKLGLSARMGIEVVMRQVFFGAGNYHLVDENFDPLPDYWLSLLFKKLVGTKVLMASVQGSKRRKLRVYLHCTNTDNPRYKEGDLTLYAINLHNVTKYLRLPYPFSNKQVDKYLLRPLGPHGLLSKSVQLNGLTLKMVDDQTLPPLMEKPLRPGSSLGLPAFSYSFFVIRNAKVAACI", "T1 sequence (Q9Y251 36-109 limits assumed)": "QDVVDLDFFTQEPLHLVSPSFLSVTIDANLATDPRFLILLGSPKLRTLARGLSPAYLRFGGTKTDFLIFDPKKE", "experiment": "cABPP of human platelet lysates, HPSE band"}, "HPSE": {"target": "T2, HPSE (Homo sapiens, UniProt Q9Y251)", "T2 sequence (Q9Y251 158-543 limits assumed)": "T1 sequence (Q9Y251 158-543 limits assumed)", "T2 sequence (Q9Y251 36-109 limits assumed)": "T1 sequence (Q9Y251 36-109 limits assumed)", "experiment": "competitive activity-based protein profiling (cABPP) with ABP 7, recombinant HPSE", "conditions": "recombinant HPSE 20 nM, 1 h preincubation at 37°C, then 100 nM ABP 7, pH 5.5"}}, "note": "Where “and” joins values, the source holds several entries; their conditions need not be identical. Equal values may be shown once.", "data": [{"smiles": "CC(=O)N[C@H]1[C@@H](O[C@H]2[C@H](O)[C@@H](O)[C@@H]3O[C@@H]3[C@@H]2C(=O)O)O[C@H](CO)[C@@H](O)[C@@H]1O", "note": "[compound 2]", "values": [{"measurement": "lung metastases (metastatic foci/lung)", "setting": "B16 melanoma cells", "value": "marked reduction in lung growths"}, {"measurement": "lung metastases (bioluminescent flux)", "setting": "4T1 breast cancer cells", "value": "marked reduction in lung metastases"}, {"measurement": "IC50", "setting": "human platelet HPSE; HPSE IC50, human platelet lysates, cABPP, n = 3", "value": "~530 nM and 530 nM"}, {"measurement": "selectivity of HPSE inhibition in platelet lysates", "setting": "human platelet HPSE; human platelet lysates containing both HPSE and GUSB", "value": "highly selective inhibition of human platelet HPSE"}, {"measurement": "HPSE inhibition (cABPP)", "setting": "HPSE", "value": "nanomolar HPSE inhibition potencies"}]}]}
